This passage reports fold induction results from patent US8759535B2, “Substituted fused imidazole derivatives, pharmaceutical compositions, and methods of use thereof” (High Point Pharmaceuticals, LLC, priority 2010, dated 2014).

The fold induction is the signal under treatment as a multiple of the control signal. Read a low fold induction as a weak induction.

One test has as its system HMOX1. The test is described as follows: HMOX1 Protein Assay (immunostaining of HO-1 in NHLF cells, GE InCell 1000). The conditions noted are these: Homo sapiens, fold change above DMSO treated cells, 3 μM compound (asterisk), 16 h. The class given is cell-based. The protocol: Cell Culture. Normal Human Fibroblast (NHLF), were obtained from Lonza. Cultures of cells were maintained in Fibroblast Growth Medium (FGM-2) medium supplemented with 2% fetal bovine serum (FBS), Fibroblast Growth Factor (hFGF-B) 0.5 mL, Insulin 0.5 mL, gentamicin/amphotericin-B 0.5 mL at 37° C. in a humidified atmosphere of 5% CO2. Cells were grown to 80% confluence before treating.
HMOX1 Protein Assay. NHLF cells were grown to 80% confluency and harvested by washing once with HEPES and then trypsinized. Equal numbers (2×10^3 cells per well) of NHLF cells were plated in 384 well optilux tissue culture (BD) plates. Cells were incubated overnight in FGM-2 medium prior to exposure to compound. Cells were treated with either vehicle (DMSO) or compound (dissolved in vehicle) for 16 h. Cells were washed 2× with 1×PBS and fixed with 4% Paraformaldyhyde for 15 min. The fixed cells were then permeabalized with 0.1% Triton X-100 and blocked with 5% BSA in 1×PBS 0.05% Tween-20 for 15 min. HO-1 antibody (abcam) was used for immunostaining at 1:300 dilution in 1% BSA in 1×PBS for 1 hour. Cells were washed 2× with 1×PBS and secondary antibody goat anti-mouse Alexa 488 1:400 dilution (Invitrogen); Hoechst 1:2000 (Invitrogen) in 1% BSA in 1×PBS for 1 hour. Plate was washed 5× with 1×PBS and read at Hoechst Ex.360 […]; Alexa 488 Ex.480 Em. 535 using GE InCell 1000. Results analyzed using GE InCell Analyzer software. Heme oxygenase data represents the fold change above DMSO treated cells.
In general, the fold induction data are reported for 5 μM concentration (i.e., μ-moles of compound to total volume, where the solvent is about 99.2% media and 0.8% DMSO). In some instances, the reported data are for 3 μM concentration, which are indicated by an asterisk (*).
In the case of `Cn1c(Nc2nc3ccc(Cl)cc3s2)nc2cc(C(=O)NCCN3CCCCC3)ccc21` [Example 334, 2-(6-Chloro-benzothiazol-2-ylamino)-1-methyl-1H-benzoimidazole-5-carboxylic acid (2-piperidin-1-yl-ethyl)-amide], the fold induction at 3 µM was determined as 13.4.

`CN1CCN(CCCNC(=O)c2ccc3c(c2)nc(Nc2nc4ccc(OC(F)(F)F)cc4s2)n3C)CC1` [Example 355, 1-Methyl-2-(6-trifluoromethoxy-benzothiazol-2-ylamino)-1H-benzoimidazole-5-carboxylic acid [3-(4-methyl-piperazin-1-yl)-propyl]-amide] displayed a fold induction at 3 µM of 26.

For `C[C@@H](O)CNC(=O)c1ccc2c(c1)nc(Nc1nc3ccc(C(F)(F)F)cc3s1)n2C` [Example 205, 1-Methyl-2-(6-trifluoromethyl-benzothiazol-2-ylamino)-1H-benzoimidazole-5-carboxylic acid ((R)-2-hydroxy-propyl)-amide], the fold induction at 3 µM came to 33.1.

`Cn1c(Nc2nc3ccc(C(F)(F)F)cc3s2)nc2cc(C(=O)NCC(=O)N3CC[C@H](O)C3)ccc21` [Example 403, 1-Methyl-2-(6-trifluoromethyl-benzothiazol-2-ylamino)-1H-benzoimidazole-5-carboxylic acid [2-((S)-3-hydroxy-pyrrolidin-1-yl)-2-oxo-ethyl]-amide] registered a fold induction at 3 µM of 24.8.

Staying with this test, now noted: Homo sapiens, fold change above DMSO treated cells, 5 μM compound, 16 h.
Turning to `CCOCCNC(=O)c1ccc2c(c1)nc(Nc1nc3ccc(OC(F)(F)F)cc3s1)n2C` [Example 4, 1-Methyl-2-(6-trifluoromethoxy-benzothiazol-2-ylamino)-1H-benzoimidazole-5-carboxylic acid (2-ethoxy-ethyl)-amide], the fold induction at 5 µM was 11.9.

On to `COCCNC(=O)c1ccc2c(c1)nc(Nc1nc3ccc(C)cc3s1)n2C` [Example 129, 2-(6-Methyl-benzothiazol-2-ylamino)-1-methyl-1H-benzimidazole-5-carboxylic acid (2-methoxy-ethyl)-amide], for which the fold induction at 5 µM is 31.

For `Cn1c(Nc2nc3ccc(OC(F)(F)F)cc3s2)nc2cc(C(=O)NCCOCC(C)(C)O)ccc21` [Example 245, 1-Methyl-2-(6-trifluoromethoxy-benzothiazol-2-ylamino)-1H-benzoimidazole-5-carboxylic acid [2-(2-hydroxy-2-methyl-propoxy)-ethyl]-amide], the fold induction at 5 µM is 33.1.

In the case of `Cn1c(Nc2nc3ccc(OC(F)(F)F)cc3s2)nc2cc(C(=O)NCc3ccc(O)cc3)ccc21` [Example 230, 1-Methyl-2-(6-trifluoromethoxy-benzothiazol-2-ylamino)-1H-benzoimidazole-5-carboxylic acid 4-hydroxy-benzylamide], the fold induction at 5 µM worked out at 29.8.

`CNC(=O)c1ccc2c(c1)nc(Nc1nc3ccc(Cl)cc3s1)n2C` [Example 88, 2-(6-Chloro-benzothiazol-2-ylamino)-1-methyl-1H-benzoimidazole-5-carboxylic acid methylamide] showed a fold induction at 5 µM of 13.

`CN(C(=O)CNC(=O)c1ccc2c(c1)nc(Nc1nc3ccc(Cl)cc3s1)n2C)C1CCOCC1` [Example 393, 2-(6-Chloro-benzothiazol-2-ylamino)-1-methyl-1H-benzoimidazole-5-carboxylic acid {[methyl-(tetrahydro-pyran-4-yl)-carbamoyl]-methyl}-amide] gave a fold induction at 5 µM of 61.3.

For the compound `CN(C)CCOCCNC(=O)c1ccc2c(c1)nc(Nc1nc3ccc(Cl)cc3s1)n2C` [Example 274, 2-(6-Chloro-benzothiazol-2-ylamino)-1-methyl-1H-benzoimidazole-5-carboxylic acid [2-(2-dimethylamino-ethoxy)-ethyl]-amide], the fold induction at 5 µM turned out to be 65.9.

`Cn1c(Nc2nc3ccc(Cl)cc3s2)nc2cc(C(=O)NCCN3CCNC(=O)C3)ccc21` [Example 331, 2-(6-Chloro-benzothiazol-2-ylamino)-1-methyl-1H-benzoimidazole-5-carboxylic acid [2-(3-oxo-piperazin-1-yl)-ethyl]-amide] displayed a fold induction at 5 µM of 70.1.

`COC(=O)c1ccc2c(c1)nc(Nc1nc3cc(F)c(F)cc3s1)n2C` [Example 33, 2-(5,6-Difluoro-benzothiazol-2-ylamino)-1-methyl-1H-benzoimidazole-5-carboxylic acid methyl ester]: the fold induction at 5 µM was determined as 11.7.

Compound `Cn1c(Nc2nc3ccc(OC(F)(F)F)cc3s2)nc2cc(C(=O)NCCOCCOCCO)ccc21` [Example 256, 1-Methyl-2-(6-trifluoromethoxy-benzothiazol-2-ylamino)-1H-benzoimidazole-5-carboxylic acid {2-[2-(2-hydroxy-ethoxy)-ethoxy]-ethyl}-amide] returned a fold induction at 5 µM of 48.

`Cn1c(Nc2nc3ccc(OC(F)(F)F)cc3s2)nc2cc(C(=O)NCCO)ccc21` [Example 10, 1-Methyl-2-(6-trifluoromethoxy-benzothiazol-2-ylamino)-1H-benzoimidazole-5-carboxylic acid (2-hydroxy-ethyl)-amide] came in with a fold induction at 5 µM of 19.9.

`Cn1c(Nc2nc3ccc(OC(F)(F)F)cc3s2)nc2cc(C(=O)NCC(=O)N3CCN(C(=O)OC(C)(C)C)CC3)ccc21` [Example 142, 4-(2-{[1-Methyl-2-(6-trifluoromethoxy-benzothiazol-2-ylamino)-1H-benzimidazole-5-carbonyl]-amino}-acetyl)-piperazine-1-carboxylic acid tert-butyl ester] yielded a fold induction at 5 µM of 15.2.

Regarding `CCNC(=O)c1ccc2c(c1)nc(Nc1nc3ccc(Cl)cc3s1)n2CC` [Example 175, 2-(6-Chloro-benzothiazol-2-ylamino)-1-ethyl-1H-benzoimidazole-5-carboxylic acid ethylamide], the fold induction at 5 µM came to 28.7.

`Cn1c(Nc2nc3ccc(OC(F)(F)F)cc3s2)nc2cc(C(=O)O)ccc21` [Example 3, 1-Methyl-2-(6-trifluoromethoxy-benzothiazol-2-ylamino)-1H-benzoimidazole-5-carboxylic acid] gave a fold induction at 5 µM of 12.5.

For `CCn1c(Nc2nc3ccc(C(F)(F)F)cc3s2)nc2cc(C(=O)NCC(C)(C)OC)ccc21` [Example 184, 1-Ethyl-2-(6-trifluoromethyl-benzothiazol-2-ylamino)-1H-benzoimidazole-5-carboxylic acid (2-methoxy-2-methyl-propyl)-amide], the fold induction at 5 µM is 9.5.

Compound `CN(CCO)C(=O)CNC(=O)c1ccc2c(c1)nc(Nc1nc3ccc(OC(F)(F)F)cc3s1)n2C` [Example 390, 1-Methyl-2-(6-trifluoromethoxy-benzothiazol-2-ylamino)-1H-benzoimidazole-5-carboxylic acid {[(2-hydroxy-ethyl)-methyl-carbamoyl]-methyl}-amide] gave a fold induction at 5 µM of 46.4.

Compound `CCS(=O)(=O)CCNC(=O)c1ccc2c(c1)nc(Nc1nc3ccc(OC(F)(F)F)cc3s1)n2C` [Example 109, 1-Methyl-2-(6-trifluoromethoxy-benzothiazol-2-ylamino)-1H-benzimidazole-5-carboxylic acid (2-ethanesulfonyl-ethyl)-amide] returned a fold induction at 5 µM of 20.9.

Turning to `Cn1c(Nc2nc3ccc(OC(F)(F)F)cc3s2)nc2cc(C(=O)NCCN3CCOCC3)ccc21` [Example 43, 1-Methyl-2-(6-trifluoromethoxy-benzothiazol-2-ylamino)-1H-benzoimidazole-5-carboxylic acid (2-morpholin-4-yl-ethyl)-amide], the fold induction at 5 µM turned out to be 29.6.

Take `COCCNC(=O)c1cc2nc(Nc3nc4ccc(OC(F)(F)F)cc4s3)n(C)c2cc1F` [Example 39, 6-Fluoro-1-methyl-2-(6-trifluoromethoxy-benzothiazol-2-ylamino)-1H-benzoimidazole-5-carboxylic acid (2-methoxy-ethyl)-amide]: the fold induction at 5 µM is 18.2.

For `Cn1c(Nc2nc3ccc(OC(F)(F)F)cc3s2)nc2cc(C(=O)NCCOCC3CCCO3)ccc21` (centres unmarked) [Example 53, 1-Methyl-2-(6-trifluoromethoxy-benzothiazol-2-ylamino)-1H-benzoimidazole-5-carboxylic acid [2-(tetrahydro-furan-2-ylmethoxy)-ethyl]-amide], the fold induction at 5 µM came to 20.1.

As for `CN1CCN(C(=O)CNC(=O)c2ccc3c(c2)nc(Nc2nc4ccc(Cl)cc4s2)n3C)CC1` [Example 426, 2-(6-Chloro-benzothiazol-2-ylamino)-1-methyl-1H-benzoimidazole-5-carboxylic acid [2-(4-methyl-piperazin-1-yl)-2-oxo-ethyl]-amide], the fold induction at 5 µM was determined as 25.1.

For the compound `Cn1c(Nc2nc3ccc(OC(F)(F)F)cc3s2)nc2cc(C(=O)NCCc3ccc(O)cc3)ccc21` [Example 251, 1-Methyl-2-(6-trifluoromethoxy-benzothiazol-2-ylamino)-1H-benzoimidazole-5-carboxylic acid [2-(4-hydroxy-phenyl)-ethyl]-amide], the fold induction at 5 µM stood at 29.6.
